Laboratory results published in the NIST ThermoML archive (doi:10.1021/je060271a).
± gives the expanded uncertainty stated by the source.

Conditions: 283.16 K, Liquid, Vibrating tube method

SMILES: CCCC(=O)OCC(COC(=O)CCC)(COC(=O)CCC)COC(=O)CCC [pentaerythritol tetrabutyrate]
- mass density (19617 kPa): 1070.2 ± 1.3 kg/m3
- mass density (19631 kPa): 1070.3 ± 1.3 kg/m3
- mass density (19642 kPa): 1070.3 ± 1.3 kg/m3
- mass density (19654 kPa): 1070.3 ± 1.3 kg/m3
- mass density (19669 kPa): 1070.3 ± 1.3 kg/m3
- mass density (19681 kPa): 1070.2 ± 1.3 kg/m3
- mass density (19694 kPa): 1070.3 ± 1.3 kg/m3
- mass density (19706 kPa): 1070.4 ± 1.3 kg/m3
- mass density (19717 kPa): 1070.3 ± 1.3 kg/m3
- mass density (19732 kPa): 1070.3 ± 1.3 kg/m3
- mass density (19743 kPa): 1070.3 ± 1.3 kg/m3
- mass density (19757 kPa): 1070.3 ± 1.3 kg/m3
- mass density (19769 kPa): 1070.3 ± 1.3 kg/m3
- mass density (19781 kPa): 1070.4 ± 1.3 kg/m3
- mass density (19796 kPa): 1070.4 ± 1.3 kg/m3
- mass density (19807 kPa): 1070.3 ± 1.3 kg/m3
- mass density (19819 kPa): 1070.4 ± 1.3 kg/m3
- mass density (19834 kPa): 1070.4 ± 1.3 kg/m3
- mass density (19846 kPa): 1070.3 ± 1.3 kg/m3
- mass density (19858 kPa): 1070.5 ± 1.3 kg/m3
- mass density (19870 kPa): 1070.5 ± 1.3 kg/m3
- mass density (19885 kPa): 1070.4 ± 1.3 kg/m3
- mass density (19897 kPa): 1070.4 ± 1.3 kg/m3
- mass density (19909 kPa): 1070.4 ± 1.3 kg/m3
- mass density (19921 kPa): 1070.3 ± 1.3 kg/m3
- mass density (19936 kPa): 1070.4 ± 1.3 kg/m3
- mass density (19947 kPa): 1070.4 ± 1.3 kg/m3
- mass density (19962 kPa): 1070.5 ± 1.3 kg/m3
- mass density (19975 kPa): 1070.6 ± 1.3 kg/m3
- mass density (19986 kPa): 1070.5 ± 1.3 kg/m3
- mass density (20001 kPa): 1070.5 ± 1.3 kg/m3
- mass density (20014 kPa): 1070.5 ± 1.3 kg/m3
- mass density (20026 kPa): 1070.3 ± 1.3 kg/m3
- mass density (20039 kPa): 1070.6 ± 1.3 kg/m3
- mass density (20053 kPa): 1070.5 ± 1.3 kg/m3
- mass density (20065 kPa): 1070.5 ± 1.3 kg/m3
- mass density (20077 kPa): 1070.5 ± 1.3 kg/m3
- mass density (20092 kPa): 1070.5 ± 1.3 kg/m3
- mass density (20104 kPa): 1070.5 ± 1.3 kg/m3
- mass density (20117 kPa): 1070.6 ± 1.3 kg/m3
- mass density (20130 kPa): 1070.5 ± 1.3 kg/m3
- mass density (20145 kPa): 1070.6 ± 1.3 kg/m3
- mass density (20157 kPa): 1070.7 ± 1.3 kg/m3
- mass density (20170 kPa): 1070.5 ± 1.3 kg/m3
- mass density (20185 kPa): 1070.6 ± 1.3 kg/m3
- mass density (20197 kPa): 1070.6 ± 1.3 kg/m3
- mass density (20210 kPa): 1070.6 ± 1.3 kg/m3
- mass density (20225 kPa): 1070.6 ± 1.3 kg/m3
- mass density (20237 kPa): 1070.6 ± 1.3 kg/m3
- mass density (20250 kPa): 1070.6 ± 1.3 kg/m3
- mass density (20264 kPa): 1070.7 ± 1.3 kg/m3
- mass density (20277 kPa): 1070.6 ± 1.3 kg/m3
- mass density (20290 kPa): 1070.8 ± 1.3 kg/m3
- mass density (20305 kPa): 1070.6 ± 1.3 kg/m3
- mass density (20317 kPa): 1070.6 ± 1.3 kg/m3
- mass density (20330 kPa): 1070.7 ± 1.3 kg/m3
- mass density (20468 kPa): 1070.7 ± 1.3 kg/m3
- mass density (20480 kPa): 1070.8 ± 1.3 kg/m3
- mass density (20493 kPa): 1070.6 ± 1.3 kg/m3
- mass density (20506 kPa): 1070.8 ± 1.3 kg/m3
- mass density (20521 kPa): 1070.7 ± 1.3 kg/m3
- mass density (20534 kPa): 1070.8 ± 1.3 kg/m3
- mass density (20548 kPa): 1070.8 ± 1.3 kg/m3
- mass density (20563 kPa): 1070.8 ± 1.3 kg/m3
- mass density (20576 kPa): 1070.8 ± 1.3 kg/m3
- mass density (20592 kPa): 1070.8 ± 1.3 kg/m3
- mass density (20605 kPa): 1070.8 ± 1.3 kg/m3
- mass density (20618 kPa): 1070.8 ± 1.3 kg/m3
- mass density (20773 kPa): 1070.9 ± 1.3 kg/m3
- mass density (20787 kPa): 1070.9 ± 1.3 kg/m3
- mass density (20800 kPa): 1070.9 ± 1.3 kg/m3
- mass density (20816 kPa): 1070.9 ± 1.3 kg/m3
- mass density (20829 kPa): 1071 ± 1.3 kg/m3
- mass density (20845 kPa): 1071 ± 1.3 kg/m3
- mass density (20858 kPa): 1070.8 ± 1.3 kg/m3
- mass density (20872 kPa): 1071 ± 1.3 kg/m3
- mass density (20886 kPa): 1071 ± 1.3 kg/m3
- mass density (20900 kPa): 1071 ± 1.3 kg/m3
- mass density (20914 kPa): 1070.9 ± 1.3 kg/m3
- mass density (20930 kPa): 1071 ± 1.3 kg/m3
- mass density (21000 kPa): 1071 ± 1.3 kg/m3
- mass density (21016 kPa): 1071 ± 1.3 kg/m3
- mass density (21030 kPa): 1071 ± 1.3 kg/m3
- mass density (21044 kPa): 1071 ± 1.3 kg/m3
- mass density (21060 kPa): 1071 ± 1.3 kg/m3
- mass density (21076 kPa): 1071 ± 1.3 kg/m3
- mass density (21090 kPa): 1071.1 ± 1.3 kg/m3
- mass density (21104 kPa): 1071.1 ± 1.3 kg/m3
- mass density (21118 kPa): 1071.1 ± 1.3 kg/m3
- mass density (21134 kPa): 1071 ± 1.3 kg/m3
- mass density (21148 kPa): 1071.1 ± 1.3 kg/m3
- mass density (21162 kPa): 1071 ± 1.3 kg/m3
- mass density (21178 kPa): 1071.1 ± 1.3 kg/m3
- mass density (21192 kPa): 1071 ± 1.3 kg/m3
- mass density (21209 kPa): 1071 ± 1.3 kg/m3
- mass density (21223 kPa): 1071.1 ± 1.3 kg/m3
- mass density (21237 kPa): 1071.1 ± 1.3 kg/m3
- mass density (21251 kPa): 1071.1 ± 1.3 kg/m3
- mass density (21267 kPa): 1071.1 ± 1.3 kg/m3
- mass density (21282 kPa): 1071.2 ± 1.3 kg/m3
- mass density (21295 kPa): 1071.3 ± 1.3 kg/m3
- mass density (21312 kPa): 1071.2 ± 1.3 kg/m3
- mass density (21326 kPa): 1071.2 ± 1.3 kg/m3
- mass density (21340 kPa): 1071.1 ± 1.3 kg/m3
- mass density (21400 kPa): 1071.2 ± 1.3 kg/m3
- mass density (21417 kPa): 1071.2 ± 1.3 kg/m3
- mass density (21431 kPa): 1071.2 ± 1.3 kg/m3
- mass density (21445 kPa): 1071.3 ± 1.3 kg/m3
- mass density (21463 kPa): 1071.3 ± 1.3 kg/m3
- mass density (21477 kPa): 1071.2 ± 1.3 kg/m3
- mass density (21491 kPa): 1071.2 ± 1.3 kg/m3
- mass density (21508 kPa): 1071.2 ± 1.3 kg/m3
- mass density (21523 kPa): 1071.4 ± 1.3 kg/m3
- mass density (21537 kPa): 1071.2 ± 1.3 kg/m3
- mass density (21554 kPa): 1071.4 ± 1.3 kg/m3
- mass density (21568 kPa): 1071.3 ± 1.3 kg/m3
- mass density (21600 kPa): 1071.4 ± 1.3 kg/m3
- mass density (21723 kPa): 1071.4 ± 1.3 kg/m3
- mass density (21785 kPa): 1071.4 ± 1.3 kg/m3
- mass density (21800 kPa): 1071.4 ± 1.3 kg/m3
- mass density (21818 kPa): 1071.5 ± 1.3 kg/m3
- mass density (22023 kPa): 1071.5 ± 1.3 kg/m3
- mass density (22039 kPa): 1071.6 ± 1.3 kg/m3
- mass density (22057 kPa): 1071.6 ± 1.3 kg/m3
- mass density (22072 kPa): 1071.6 ± 1.3 kg/m3
- mass density (22087 kPa): 1071.6 ± 1.3 kg/m3
- mass density (22102 kPa): 1071.6 ± 1.3 kg/m3
- mass density (22121 kPa): 1071.5 ± 1.3 kg/m3
- mass density (22136 kPa): 1071.6 ± 1.3 kg/m3
- mass density (22154 kPa): 1071.6 ± 1.3 kg/m3
- mass density (22169 kPa): 1071.6 ± 1.3 kg/m3
- mass density (22184 kPa): 1071.6 ± 1.3 kg/m3
- mass density (22200 kPa): 1071.7 ± 1.3 kg/m3
- mass density (22219 kPa): 1071.6 ± 1.3 kg/m3
- mass density (22234 kPa): 1071.6 ± 1.3 kg/m3
- mass density (22250 kPa): 1071.7 ± 1.3 kg/m3
- mass density (22266 kPa): 1071.6 ± 1.3 kg/m3
- mass density (22284 kPa): 1071.6 ± 1.3 kg/m3
- mass density (22300 kPa): 1071.7 ± 1.3 kg/m3
- mass density (22316 kPa): 1071.7 ± 1.3 kg/m3
- mass density (22331 kPa): 1071.7 ± 1.3 kg/m3
- mass density (22790 kPa): 1071.9 ± 1.3 kg/m3
- mass density (22826 kPa): 1071.9 ± 1.3 kg/m3
- mass density (22842 kPa): 1072 ± 1.3 kg/m3
- mass density (22861 kPa): 1072.1 ± 1.3 kg/m3
- mass density (22877 kPa): 1072 ± 1.3 kg/m3
